Experimental data from patent US20240360081A1, “SULFONAMIDE OREXIN RECEPTOR AGONISTS AND USES THEREOF” (Jazz Pharmaceuticals Ireland Limited, priority 2021, published 2024).

target: T1, human recombinant OX2 (hOX2) receptor expressed in CHO cells (Homo sapiens, UniProt O43614); assay: IP-1 accumulation assay (IP-One HTRF) in hOX2-CHO cells; format: cell-based; details: 60 min at 37° C., 11 points CRC, response as % of maximal OX-A response
T1 construct: host or cells: CHO cells (hOX2-CHO)
T1 sequence (O43614 1-444): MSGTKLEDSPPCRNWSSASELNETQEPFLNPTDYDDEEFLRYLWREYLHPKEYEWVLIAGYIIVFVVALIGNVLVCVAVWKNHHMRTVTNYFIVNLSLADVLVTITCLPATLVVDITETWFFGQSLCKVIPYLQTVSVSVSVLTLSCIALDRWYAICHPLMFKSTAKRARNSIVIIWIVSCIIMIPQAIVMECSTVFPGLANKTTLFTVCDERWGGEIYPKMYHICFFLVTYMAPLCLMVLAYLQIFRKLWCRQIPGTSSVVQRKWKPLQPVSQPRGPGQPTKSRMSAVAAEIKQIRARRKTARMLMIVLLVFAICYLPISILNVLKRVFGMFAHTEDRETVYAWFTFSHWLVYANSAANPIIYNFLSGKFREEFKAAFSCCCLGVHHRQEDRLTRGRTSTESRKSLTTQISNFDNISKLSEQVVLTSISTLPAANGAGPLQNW
Protocol: The accumulation of Inositol-1 Monophosphate (IP-1) was measured using IP-One HTRF® Terbium cryptate based assay (Cisbio) in human recombinant OX1 (hOX1) and at OX2 (hOX2) receptors expressed in CHO cells (DiscoverX) according to the manufacturer's instructions for cells tested in suspension.
hOX1-CHO and hOX2-CHO cells were seeded into white 384-well plates at a density of 20,000 cells/well in Hank's Balanced Salt Solution (HBSS) containing 20 mM HEPES pH 7.4, 50 mM, LiCl and 0.1% and Bovine Serum Albumin (BSA).
Compounds of the present disclosure were tested in a 11 points concentration response curve (CRC) serially diluted in neat DMSO at 200 fold concentrations and added by Echo acoustic liquid handling (Labcyte) to the cells (0.5% DMSO final in the assay). After 60 min of incubation at 37° C. detection reagents, IP1-d2 tracer and anti-IP1-cryptate were diluted in lysis buffer according to the manufacturer's descriptions and added to the cells.
Following 60 min incubation at room temperature, time-resolved fluorescence (HTRF) was measured at 615 nm and 665 nm by Envision Multilabel reader (Perkin Elmer) and the HTRF ratio (A665/A615x104) was calculated.
The IP-1 accumulation response was expressed as percentage of the maximal OX-A response.
Curve fitting and EC50 estimations were carried out using a four-parameter logistic model using XLfit Software. Mean data of EC50 are calculated from at least two independent experiments performed in duplicates.
In the Tables, below Category A corresponds to compounds displaying an […]<100 nM, Category B between 100 nM and 1,000 nM, Category C between 1,000 nM and 10,000 nM and Category D above 10,000 nM.

EC50	SMILES
1000 to 10000 nM	Cc1cc(Cl)cn(C(CNS(C)(=O)=O)CO[C@H]2CC[C@@H](c3cccc(F)c3)CC2)c1=O (single isomer, unassigned; isomer 2) [Example 2ai, (S or R) N-[2-(5-chloro-3-methyl-2-oxo-1,2-dihydropyridin-1-yl)-3-{[(CIS)-4-(3-fluorophenyl)cyclohexyl]oxy}propyl]methanesulfonamide-Isomer 2]
> 10000 nM	Cc1cc(C)c(=O)n(C(CNS(C)(=O)=O)COC2CCC3(CCOC3)CC2)c1 (stereo not shown) [Example 2bd, N-[2-(3,5-dimethyl-2-oxo-1,2-dihydropyridin-1-yl)-3-{2-oxaspiro[4.5]decan-8-yloxy}propyl]methanesulfonamide]
> 10000 nM	Cc1cccn(C(CNS(C)(=O)=O)CO[C@H]2CC[C@@H](c3ccccc3)CC2)c1=O (single isomer, unassigned; isomer 1) [Example 1d, (R or S) N-[2-(3-methyl-2-oxo-1,2-dihydropyridin-1-yl)-3-{[(CIS)-4-phenylcyclo-hexyl]oxy}propyl] methane-sulfonamide- Isomer 1]
< 100 nM	Cc1cc(C)[n+]([O-])c(C(CNS(C)(=O)=O)CO[C@H]2CC[C@@H](c3ccccc3)CC2)c1 (single isomer, unassigned; isomer 1) [Example 5k, (R or S) 2-[1-methanesulfonamido-3-{[(CIS)-4-phenylcyclohexyl]oxy}propan-2-yl]-4,6-dimethylpyridin-1-ium-1-olate—Isomer 1]
< 100 nM	Cc1cc(C(CNS(C)(=O)=O)CO[C@H]2CC[C@@H](c3cccc(F)c3)CC2)c(=O)n(C(F)F)c1 (single isomer, unassigned; isomer 1) [Example 5y, (R or S) N-[2-[1-(difluoromethyl)-5-methyl-2-oxo-1,2-dihydropyridin-3-yl]-3-{[(CIS)-4-(3-fluorophenyl)cyclohexyl]oxy}propyl]methanesulfonamide—Isomer 1]
1000 to 10000 nM	CS(=O)(=O)NCC(CO[C@H]1CC[C@@H](c2ccccc2)CC1)n1cc(C#N)ccc1=O (stereo partly drawn) [Example 2r, N-[2-(5-cyano-2-oxo-1,2-dihydropyridin-1-yl)-3-{[(CIS)-4-phenylcyclohexyl]oxy}propyl]methanesulfonamide]
1000 to 10000 nM	CS(=O)(=O)NCC(CO[C@H]1CC[C@@H](c2ccccc2)CC1)n1cccc(F)c1=O (single isomer, unassigned; isomer 1) [Example 2g, (R or S) N-[2-(3-fluoro-2-oxo-1,2-dihydropyridin-1-yl)-3-{[(CIS)-4-phenylcyclohexyl]oxy}propyl]methanesulfonamide-Isomer 1]
100 to 1000 nM	Cc1cccn(C(CNS(C)(=O)=O)CO[C@H]2CC[C@@H](c3ccccc3)CC2)c1=O (stereo partly drawn) [Example 1c, N-[2-(3-methyl-2-oxo-1,2-dihydropyridin-1-yl)-3-{[(CIS)-4-phenylcyclo-hexyl]oxy}propyl] methane-sulfonamide]
1000 to 10000 nM	Cc1cccn(C(CO[C@H]2CC[C@@H](c3ccccc3)CC2)C(C)NS(C)(=O)=O)c1=O (single isomer, unassigned; isomer 4) [Example 3d, (2R or 2S) and (3S or 3R) N-[3-(3-methyl-2-oxo-1,2-dihydropyridin-1-yl)-4-{[(CIS)-4-phenylcyclohexyl]oxy}butan-2-yl]methanesulfonamide—Isomer 4]
100 to 1000 nM	Cc1cc(C(CNS(=O)(=O)N(C)C)CO[C@H]2CC[C@@H](c3cccc(F)c3)CC2)c(=O)n(C(F)F)c1 (single isomer, unassigned; isomer 2) [Example 5ac, (S or R) 1-(difluoromethyl)-3-[1-[(dimethylsulfamoyl)amino]-3-{[(CIS)-4-(3-fluorophenyl)cyclohexyl]oxy}propan-2-yl]-5-methyl-1,2-dihydropyridin-2-one—Isomer 2]
1000 to 10000 nM	Cc1cc(C)c(=O)n(C(CNS(C)(=O)=O)CO[C@H]2CC[C@@H](c3cccc(F)c3)CC2)c1 (single isomer, unassigned; isomer 2) [Example 2ag, (S or R) N-[2-(3,5-dimethyl-2-oxo-1,2-dihydropyridin-1-yl)-3-{[(CIS)-4-(3-fluorophenyl)cyclohexyl]oxy}propyl]methanesulfonamide-Isomer 2]
1000 to 10000 nM	Cc1cc(C)[n+]([O-])c(C(CNS(C)(=O)=O)CO[C@H]2CC[C@@H](c3ccccc3)CC2)c1 (single isomer, unassigned; isomer 2) [Example 5l, (S or R) 2-[1-methanesulfonamido-3-{[(CIS)-4-phenylcyclohexyl]oxy}propan-2-yl]-4,6-dimethylpyridin-1-ium-1-olate—Isomer 2]
100 to 1000 nM	Cc1ccc(=O)n(C(CNS(C)(=O)=O)CO[C@H]2CC[C@@H](c3ccccc3)CC2)c1 (single isomer, unassigned; isomer 1) [Example 2j, (R or S) N-[2-(5-methyl-2-oxo-1,2-dihydropyridin-1-yl)-3-{[(CIS)-4-phenylcyclohexyl]oxy}propyl]methanesulfonamide-Isomer 1]
1000 to 10000 nM	Cc1cc(C(CNS(C)(=O)=O)CO[C@H]2CC[C@@H](c3cccc(F)c3)CC2)c(=O)n(C(F)F)c1 (single isomer, unassigned; isomer 2) [Example 5z, (S or R) N-[2-[1-(difluoromethyl)-5-methyl-2-oxo-1,2-dihydropyridin-3-yl]-3-{[(CIS)-4-(3-fluorophenyl)cyclohexyl]oxy}propyl]methanesulfonamide—Isomer 2]
100 to 1000 nM	Cc1ccn(C(CNS(C)(=O)=O)CO[C@H]2CC[C@@H](c3ccccc3)CC2)c(=O)c1C (single isomer, unassigned; isomer 1) [Example 2n, (R or S) N-[2-(3,4-dimethyl-2-oxo-1,2-dihydropyridin-1-yl)-3-{[(CIS)-4-phenylcyclohexyl]oxy}propyl]methanesulfonamide-Isomer 1]
1000 to 10000 nM	Cc1cccn(C(CO[C@H]2CC[C@@H](c3ccccc3)CC2)C(C)NS(C)(=O)=O)c1=O (single isomer, unassigned; isomer 2) [Example 3b, (2S or 2R) and (3S or 3R) N-[3-(3-methyl-2-oxo-1,2-dihydropyridin-1-yl)-4-{[(CIS)-4-phenylcyclohexyl]oxy}butan-2-yl]methanesulfonamide—Isomer 2]
100 to 1000 nM	Cc1cc(C)c(=O)n(C(CNS(=O)(=O)CC(F)F)CO[C@H]2CC[C@@H](c3cccc(F)c3)CC2)c1 (stereo partly drawn) [Example 2ao, N-[2-(3,5-dimethyl-2-oxo-1,2-dihydropyridin-1-yl)-3-{[(CIS)-4-(3-fluorophenyl)cyclohexyl]oxy}propyl]-2,2-difluoroethane-1-sulfonamide]
1000 to 10000 nM	CS(=O)(=O)NCC(CO[C@H]1CC[C@@H](c2ccccc2)CC1)n1ccccc1=O (single isomer, unassigned; isomer 1) [Example 1a, (R or S) N-[2-(2-oxo-1,2-dihydropyridin-1-yl)-3-{[(CIS)-4-phenylcyclo-hexyl]oxy}propyl] methane-sulfonamide- Isomer 1]
> 10000 nM	Cc1cc(C)c(=O)n(C(CNS(C)(=O)=O)COC2CCN(c3ncc(F)cn3)CC2)c1 (single isomer, unassigned; isomer 2) [Example 2ba, (S or R) N-[2-(3,5-dimethyl-2-oxo-1,2-dihydropyridin-1-yl)-3-{[1-(5-fluoropyrimidin-2-yl)piperidin-4-yl]oxy}propyl]methanesulfonamide-Isomer 2]
> 10000 nM	Cc1ccnn1C(CNS(C)(=O)=O)CO[C@H]1CC[C@@H](c2ccccc2)CC1 (single isomer, unassigned; isomer 1) [Example 2ad, (R or S) N-[2-(5-methyl-1H-pyrazol-1-yl)-3-{[(CIS)-4-phenylcyclohexyl]oxy}propyl]methanesulfonamide-Isomer 1]
> 10000 nM	Cc1ccn(C(CNS(C)(=O)=O)CO[C@H]2CC[C@@H](c3ccccc3)CC2)c(=O)c1C (single isomer, unassigned; isomer 2) [Example 2o, (S or R) N-[2-(3,4-dimethyl-2-oxo-1,2-dihydropyridin-1-yl)-3-{[(CIS)-4-phenylcyclohexyl]oxy}propyl]methanesulfonamide-Isomer 2]
> 10000 nM	CS(=O)(=O)NCC(CO[C@H]1CC[C@@H](c2ccccc2)CC1)n1cccc(F)c1=O (single isomer, unassigned; isomer 2) [Example 2h, (S or R) N-[2-(3-fluoro-2-oxo-1,2-dihydropyridin-1-yl)-3-{[(CIS)-4-phenylcyclohexyl]oxy}propyl]methanesulfonamide-Isomer 2]
